# According to paper PMC9317966, “Structure-function analysis of the AMPK activator SC4 and identification of a potent pan AMPK activator” (Biochemical Journal, 2022):
# Tests used:
# γ1AMPK complexes = assay: Radiolabel kinase assay, immobilised GST-tagged γ1AMPK (stated across γ1 complexes); format: biochemical, human
# Source text: (§1) We directly compared in vitro potencies of pan activators by performing radiolabel kinase assays with γ1AMPK complexes. Initially, we used GST-tagged γ1AMPK expressed in HEK293T/17 cells and immobilised on glutathione-Sepharose (Figure 2 and Table 2). […] These assays used AMPK purified from Sf9 insect cells or E. coli that was pre-treated with CaMKK2. […] However, relative to immobilised GST-α2β1γ1 from HEK293T/17 cells, His-tagged and myristoylated α2β1γ1 AMPK (expressed in E. coli, CaMKK2-treated and assayed in solution) was at least 10-fold more sensitive to activation by both MK-8722 and MSG011 (Supplementary Figure S3B), indicating the GST-affinity tag or CaMKK2 treatment may exert some influence on sensitivity to these activators.
# Adherent HEK293T/17 cells at ∼50% confluency were triply transfected with full-length AMPK α1 or α2 (NH2-terminal GST fusion, pDEST27 vector), β1 or β2 (COOH-terminal FLAG fusion, pcDNA3.1 vector), and γ1, γ2 or γ3 (NH2-terminal HA fusion, pMT2 vector) in the presence of FuGENE HD transfection reagent (Promega) as per the manufacturers protocol. Cells were harvested 48 hours post-transfection by first gently washing in ice cold phosphate buffered saline (PBS; Sigma–Aldrich), then scraping in ice cold lysis buffer (50 mM TRIS pH 7.5, 150 mM NaCl, 10% (v/v) glycerol, 50 mM NaF, 5 mM sodium pyrophosphate, 1% (v/v) Triton X-100, cOmplete protease inhibitor cocktail). Lysates were clarified by centrifugation (16 000g, 3 min, 4°C), flash frozen in liquid N2 and stored at −80°C until analysis. For radioactive kinase assays, AMPK was immobilised on glutathione Sepharose 4B resin (GE Healthcare) by incubation with lysates for 1.5 h at 4°C. Following centrifugation (1000g, 3 min, 4°C), the resin was washed twice in purification buffer (50 mM HEPES pH 7.4, 150 mM NaCl, 10% (v/v) glycerol, 0.02% (v/v) Tween-20), once in 50 mM HEPES pH 7.4 with 0.02% (v/v) Tween-20, then resuspended to a 50% slurry with 50 mM HEPES pH 7.4 and 10 µl added to the activity assays. For in solution kinase assays, α1β1γ1 AMPK was eluted from glutathione-Sepharose by incubating with purification buffer supplemented with 40 mM reduced glutathione (Sigma–Aldrich).
# AMPK activity was determined by phosphorylation of the SAMS peptide (Purar Chemicals, sequence: NH2-HMRSAMSGLHLVKRR-COOH) in a 25 µl reaction volume containing 100 µM SAMS peptide, 5 mM MgCl2, 200 µM ATP, [γ-^32P]-ATP (PerkinElmer) and assay buffer (50 mM HEPES pH 7.4, 1 mM DTT and 0.02% (v/v) Tween-20) and purified AMPK. […] Ultima Gold liquid scintillation fluid (5 ml; PerkinElmer) was added to vials containing dried phosphocellulose papers, and the level of ^32P-transfer to the SAMS peptide was determined using a Tri-Carb 2900TR liquid scintillation counter (PerkinElmer).
# [1] = molecular target: T1, E. coli-expressed His-α2β1γ1 AMPK (Homo sapiens, UniProt P54646+Q9Y478); assay: In solution SAMS kinase assay, E. coli-expressed myristoylated His-α2β1γ1, CaMKK2-treated; format: biochemical; conditions: for EC50 / Max. fold activation: E. coli-expressed α2β1γ1, CaMKK2-treated; for sensitivity to activation relative to immobilised GST-α2β1γ1 from HEK293T/17 cells: His-tagged myristoylated α2β1γ1, E. coli, CaMKK2-treated
# T1 construct: Recombinant full-length AMPK 6xHisα2β1γ1 was expressed in E. coli Rosetta 2 (DE3); made in house; host or cells: E. coli Rosetta 2 (DE3)
# Source text: as §1
# Recombinant full-length AMPK 6xHisα2β1γ1 was expressed in E. coli Rosetta 2 (DE3) (Merck Millipore) after double-transformation of pET-Duet-1 (α and γ subunits) and pCOLA (β subunit) vectors. Expression cultures were grown at 37°C in Luria-Bertani broth supplemented with 100 µg ml^−1 ampicillin and 50 µg ml^−1 kanamycin. Cultures shaking at 120 rpm in PYREX 2800 ml Fernbach-style culture flasks with baffles (Corning) were grown to an optical density (OD600) of 3.0 before induction with 500 µM isopropyl-β-D-1-thiogalactopyranoside (IPTG; Gold Biotechnology) and incubation overnight at 16°C. Cell pellets were resuspended in lysis buffer (50 mM TRIS pH 7.6, 500 mM NaCl, 5% (v/v) glycerol, 50 mM imidazole, 2 mM β-mercaptoethanol, 0.01 mM leupeptin, 0.1 mM AEBSF, 0.5 mM benzamidine hydrochloride), lysed using a precooled EmulsiFlex-C5 homogeniser (Avestin) and clarified via centrifugation (16 000g, 30 min, 4°C). Supernatant was passed through a HisTrap HP 5 ml Ni^2+ column (GE Healthcare) at 1 ml min^−1. The column was washed with 10 column volumes of chilled Ni^2+ column buffer (50 mM TRIS pH 7.6, 500 mM NaCl, 10% (v/v) glycerol, 50 mM imidazole, 2 mM β-mercaptoethanol) before elution with Ni^2+ column buffer supplemented with 400 mM imidazole. Proteinaceous fractions were then separated on a HiLoad 16/600 Superdex 200 gel filtration column (GE Healthcare) pre-equilibrated with size exclusion column buffer (SEC buffer; 50 mM TRIS pH 8.0, 150 mM NaCl, 2 mM tris(2-carboxyethyl) phosphine (TCEP)). AMPK containing fractions were pooled and concentrated to ∼2 mg ml^−1 using Amicon centrifugal filter units (Merck Millipore) prior to CaMKK2 treatment.
# To phosphorylate AMPK, purified protein was incubated in the presence of 0.5 mM ATP, 0.5 mM AMP, 2.5 mM MgCl2 (Merck Millipore), SEC buffer and purified CaMKK2 (1 : 2500 mass ratio of CaMKK2:AMPK; for 1 h at 22°C with gentle rolling. The phosphorylation reaction was terminated by directly loading onto a HiLoad 16/600 Superdex 200 gel filtration column pre-equilibrated with SEC buffer. Protein was either assayed or concentrated to ∼10 mg ml^−1 using Amicon centrifugal filter units and flash frozen in L-N2 and stored at −80°C. The purified AMPK was analysed by ToF-MS and sample purity confirmed by SDS–PAGE.
# AMPK activity was determined by phosphorylation of the SAMS peptide (Purar Chemicals, sequence: NH2-HMRSAMSGLHLVKRR-COOH) in a 25 µl reaction volume containing 100 µM SAMS peptide, 5 mM MgCl2, 200 µM ATP, [γ-^32P]-ATP (PerkinElmer) and assay buffer (50 mM HEPES pH 7.4, 1 mM DTT and 0.02% (v/v) Tween-20) and purified AMPK. Phosphotransferase activity was conducted at 30°C for 10 min and reactions were quenched by spotting 15 µl onto phosphocellulose ion-exchange chromatography paper (made in-house), followed by repeated washes in 1% H3PO4 (Merck Millipore). Ultima Gold liquid scintillation fluid (5 ml; PerkinElmer) was added to vials containing dried phosphocellulose papers, and the level of ^32P-transfer to the SAMS peptide was determined using a Tri-Carb 2900TR liquid scintillation counter (PerkinElmer).
# ⍺1β1γ1 – in solution E. coli-expressed ⍺2β1γ1
# log [compound] (M) log [compound] (M)
# Compound EC (nM) Max. fold Compound EC50 (nM) Max. fold […]
# human GST-AMPK α1β2γ1 = molecular target: T2, human GST-AMPK α1β2γ1 (Homo sapiens, UniProt O43741+Q13131); assay: Radiolabel SAMS kinase assay, GST-AMPK from HEK293T/17 cells immobilised on glutathione-Sepharose; format: biochemical; conditions: for Max. fold activation: immobilised α1β2γ1; for EC50: immobilised α1β2γ1, 0–30 µM activator
# T2 construct: triply transfected with full-length AMPK α1 or α2 (NH2-terminal GST fusion, pDEST27 vector); full-length AMPK α1 or α2 (NH2-terminal GST fusion, pDEST27 vector), β1 or β2 (COOH-terminal FLAG fusion, pcDNA3.1 vector); FLAG (C); made in house; host or cells: HEK293T/17 cells, transient triple transfection
# T2 sequence (Q13131 whole entry, the tested form may be a part): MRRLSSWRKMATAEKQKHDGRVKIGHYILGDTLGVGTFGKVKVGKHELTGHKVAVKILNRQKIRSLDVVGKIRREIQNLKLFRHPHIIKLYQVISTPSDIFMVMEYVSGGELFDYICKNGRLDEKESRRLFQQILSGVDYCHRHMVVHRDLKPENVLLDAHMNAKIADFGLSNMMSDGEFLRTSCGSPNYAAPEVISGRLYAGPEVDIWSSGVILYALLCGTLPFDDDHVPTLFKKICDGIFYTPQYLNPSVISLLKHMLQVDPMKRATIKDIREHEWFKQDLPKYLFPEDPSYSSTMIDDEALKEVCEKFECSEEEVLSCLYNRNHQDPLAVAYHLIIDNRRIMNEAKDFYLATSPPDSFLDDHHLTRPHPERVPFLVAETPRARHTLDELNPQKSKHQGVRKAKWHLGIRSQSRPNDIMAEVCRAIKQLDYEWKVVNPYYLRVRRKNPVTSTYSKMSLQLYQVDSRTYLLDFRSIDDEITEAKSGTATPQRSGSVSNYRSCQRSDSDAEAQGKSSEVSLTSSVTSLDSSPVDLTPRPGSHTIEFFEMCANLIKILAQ
# T2 sequence (O43741 whole entry, the tested form may be a part): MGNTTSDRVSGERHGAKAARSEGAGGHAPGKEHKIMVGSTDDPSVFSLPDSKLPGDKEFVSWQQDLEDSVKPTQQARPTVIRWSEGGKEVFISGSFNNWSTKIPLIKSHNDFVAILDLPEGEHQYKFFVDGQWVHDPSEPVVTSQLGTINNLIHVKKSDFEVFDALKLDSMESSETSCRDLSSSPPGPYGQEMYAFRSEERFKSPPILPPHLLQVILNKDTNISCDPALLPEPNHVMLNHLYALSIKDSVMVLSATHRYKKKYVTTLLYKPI
# T2 sequence (P54619 whole entry partner, the tested form may be a part): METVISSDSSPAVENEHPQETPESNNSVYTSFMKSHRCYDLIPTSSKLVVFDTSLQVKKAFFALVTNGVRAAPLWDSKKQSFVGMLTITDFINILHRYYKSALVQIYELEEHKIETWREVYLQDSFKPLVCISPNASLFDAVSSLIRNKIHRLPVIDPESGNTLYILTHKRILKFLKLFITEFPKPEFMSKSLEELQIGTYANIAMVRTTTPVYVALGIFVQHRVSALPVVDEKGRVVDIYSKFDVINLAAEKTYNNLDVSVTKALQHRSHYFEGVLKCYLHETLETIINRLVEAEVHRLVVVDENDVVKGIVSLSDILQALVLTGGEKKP
# T1 sequence (P54646 whole entry): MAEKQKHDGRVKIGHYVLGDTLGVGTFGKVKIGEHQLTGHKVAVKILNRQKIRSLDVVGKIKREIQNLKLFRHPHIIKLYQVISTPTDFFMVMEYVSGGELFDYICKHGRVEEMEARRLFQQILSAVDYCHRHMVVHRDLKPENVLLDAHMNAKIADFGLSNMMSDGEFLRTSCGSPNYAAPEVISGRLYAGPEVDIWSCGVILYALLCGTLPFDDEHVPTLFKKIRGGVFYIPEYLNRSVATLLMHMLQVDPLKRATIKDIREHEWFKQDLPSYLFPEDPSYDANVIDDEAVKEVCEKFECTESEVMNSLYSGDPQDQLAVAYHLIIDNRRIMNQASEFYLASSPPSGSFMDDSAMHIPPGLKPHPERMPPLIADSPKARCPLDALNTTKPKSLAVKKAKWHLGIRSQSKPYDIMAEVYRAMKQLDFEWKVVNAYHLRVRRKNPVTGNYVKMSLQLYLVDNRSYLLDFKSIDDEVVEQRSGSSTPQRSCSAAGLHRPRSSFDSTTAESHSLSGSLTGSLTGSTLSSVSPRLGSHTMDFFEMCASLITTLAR
# T1 sequence (Q9Y478 whole entry): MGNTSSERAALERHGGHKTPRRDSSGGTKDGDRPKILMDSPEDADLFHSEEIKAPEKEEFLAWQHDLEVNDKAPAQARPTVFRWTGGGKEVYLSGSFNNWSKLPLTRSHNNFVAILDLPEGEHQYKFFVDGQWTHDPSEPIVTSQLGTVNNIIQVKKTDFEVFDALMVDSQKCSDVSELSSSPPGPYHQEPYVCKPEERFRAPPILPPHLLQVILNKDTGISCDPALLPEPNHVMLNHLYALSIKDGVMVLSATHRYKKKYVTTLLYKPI
# T1 sequence (P54619 whole entry partner): as the sequence (P54619 whole entry partner, the tested form may be a part) above
"EC50 fold higher than previously determined by high-throughput fluorescence-based assays in solution (γ1AMPK complexes; compared with refs 17, 18)","EC50 (γ1AMPK complexes; immobilised GST-γ1AMPK, read-out: EC50 values for γ1AMPK activation) [nM]",EC50 [1] [nM],Max. fold activation [1] [fold],sensitivity to activation relative to immobilised GST-α2β1γ1 from HEK293T/17 cells [1],Max. fold activation (human GST-AMPK α1β2γ1) [fold],EC50 (human GST-AMPK α1β2γ1) [nM],Structure (SMILES)
100–1000 fold,1200 to 5600,334,3.6,at least 10 fold,4.4,2180,"O[C@@H]1CO[C@H]2[C@@H]1OC[C@H]2Oc1nc2nc(-c3ccc(-c4ccccc4)cc3)c(Cl)cc2[nH]1 [MK-8722, reference compound]"
,,32.6,5.5,at least 10 fold,2.3,249,"CC(=O)NC1CC=C(c2ccc(-c3nc4nc(Oc5ccc(C)c(C(=O)O)c5)[nH]c4cc3Cl)cc2)CC1 (stereo not drawn) [MSG011, 5-((5-(4′-Acetamido-2′,3′,4′,5′-tetrahydro-[1,1′-biphenyl]-4-yl)-6-chloro-1H-imidazo[4,5-b]pyridin-2-yl)oxy)-2-methylbenzoic acid]"
